Results on seven compounds are retold here after patent US8003595B2, “Amino acid sequences facilitating penetration of a substance of interest into cells and/or cell nuclei” (Cellectis, priority 2000, dated 2011).

Experiment [1] deals with Salmonella typhiTy2 (WHO). In words: microbe, parasite or virus in culture. Format: cell-based, S. typhi-Ty2. As to the method:
(§1) The gram-positive bacterial strains are: Enterococcus faecalis (ATCC 29212), and Staphylococcus aureus (ATCC 25923) and the gram-negative strains are: Escherichia coli (ATCC 25922), Pseudomonas aeruginosa (ATCC 27853) and Salmonella typhimurim (clinical isolate), Salmonella typhiTy2 (WHO). The bacteria are cultured with shaking all night at 37° C., then recultured at a dilution of 1:50 in some fresh Luria-Bertani (LB) medium for 2 hours. The bacterial concentration is adjusted to […], and 50 μl is distributed in 96-well plates with an equal volume of peptides diluted half and half (256-0.5 μg/ml) in LB medium. […] To determine the minimum bactericide concentration, 10 μl from each well is spread on gelose plates in LB medium.
(§2) The results are expressed as the peptide concentration in MBC (μM).

Experiment [2] concerns Salmonella typhimurim (clinical isolate). As to the kind of experiment: Antibacterial activity of cationic peptides (MBC). To be noted: S. typhimurium. It is filed as cell-based. As to the method:
as §1, §2

Experiment [3] relates to Pseudomonas aeruginosa (ATCC 27853). In words: microbe, parasite or virus in culture. The note with it: P. aeruginosa. It is filed as cell-based. On the procedure:
as §1, §2

Experiment [4] concerns Enterococcus faecalis (ATCC 29212). As to the kind of experiment: microbe, parasite or virus in culture. To be noted: E. faecalis. It is filed as cell-based. On the procedure:
as §1, §2

The subject of experiment [5] is Escherichia coli (ATCC 25922). In words: microbe, parasite or virus in culture. To be noted: E. coli, read-out: MBC. It is filed as cell-based. On the procedure: as §1, §2
For experiment [6], the system named is Staphylococcus aureus (ATCC 25923). As to the kind of experiment: microbe, parasite or virus in culture. It is filed as cell-based. The note with it: S. aureus. On the procedure: as §1, §2
The nature of experiment [7]: ELISA fixation of biotinylated peptides on sensitized plates. It is filed as binding. To be noted: read-out: avidity (Kd), quantity of peptides necessary to obtain 50% fixation, Chondroitin B; Table 5. A general note: An ELISA detects its analyte on a solid surface through an enzyme-linked reagent.
Test in experiment [8]: as above
It is filed as binding. The note with it: read-out: avidity (Kd), quantity of peptides necessary to obtain 50% fixation, Heparin, Table 5. As to the method: The capacity of peptides SEQ ID NO: 1 to 21 to attach themselves to DNA and heparin is evaluated on ELISA plates sensitized with DNA or heparin. Dilutions of biotinylated peptides are deposited on the plates and their fixation is shown using streptavidin conjugated with peroxidase. […] The avidity of each of the peptides for DNA or heparin is evaluated by the quantity (×10^−6 M) of peptides necessary to obtain 50% fixation.

Test in experiment [9]: as above
To be noted: read-out: avidity (Kd), quantity of peptides necessary to obtain 50% fixation, Chondroitin A; Table 5. It is filed as binding.

The subject of the next experiment is H1299 cells. As to the kind of experiment: Internalization of covalent peptide-peroxidase conjugates. It is filed as cell-based, human. To be noted: for Internalization of Peptide-peroxidase: Table 9, H1299, 0.2 μg/ml conjugate; for Internalization of Peptide-peroxidase / quantity of peptide internalized: 2 hours. On the procedure:
(§3) To evaluate more directly the penetration of the peptides, avoiding the avidin-peroxidase bias, some of the peptides in sequences SEQ ID NO: 25 to 48 were conjugated covalently with cysteine in the C-terminal position of the peptide to peroxidase. The peptides were coupled with peroxidase in the following way:
(§4) One mg of peroxidase activated with maleimide (Sigma) in 100 μl of sodium phosphate buffer, NaCl 0.15 M, EDTA 5 mM, had 1 mg of peptide added to it. After 2 hours at laboratory temperature, β-mercaptoethanol is added to a final concentration of 1.5 mM for 15 minutes. The uncoupled peptide is eliminated by centrifugation on ultrafiltration membranes (cut-off threshold=30,000 Daltons, Sartorius), followed by three washings in sodium phosphate buffer 0.1 M, pH 7.4 containing 0.15 M NaCl.
The H1299 cells are incubated for 2 hours with the conjugates at increasing concentrations of peptide-peroxidase in the culture medium, then washed with PBS. The cells are lysed and the quantity of peptide internalized is evaluated by the dosage of peroxidase in the lysate of the cells with reference to a curve established with peptide-peroxidase.
The quantity of peptide internalized (pg/10^3 cells), depending on the concentrations of conjugates in the culture medium, is shown in Table 8 below.
(§5) It appears that the higher the concentration of peptide-peroxidase conjugate in the culture medium, the more the quantity internalized increases. To compare the penetration of the conjugates by cell type, the cells from different lines were incubated with 0.2 μg/ml of peptide-peroxidase conjugate for 2 hours, and the quantity of peroxidase dosed in the lysates. Table 9 and Table 9B below give the results expressed in pg/10^3 cells. The quantity of each peptide internalized in the different lines generally varies only from single to double.

A further experiment has as its system HeLa. The description is as above. Format: cell-based, human. To be noted: Table 9, 0.2 μg/ml conjugate, 2 hours. On the procedure:
as §3, §4, §5

A short description of experiment [10]: ELISA fixation of biotinylated peptides on sensitized plates. Format: binding. To be noted: read-out: avidity (Kd), quantity of peptides necessary to obtain 50% fixation, Chondroitin C; Table 5.
A further experiment deals with 3T3. As to the kind of experiment: Internalization of covalent peptide-peroxidase conjugates. It is filed as cell-based, mouse. The note with it: Table 9, 0.2 μg/ml conjugate, 2 hours. On the procedure: as §3, §4, §5
The test system of a further experiment is cells. In words: Penetration of biotinylated peptides inside cells (microscopy, S-PO coloration). To be noted: biotinylated peptides 50 to 6 μg/ml, 1-18 hours, revealed with S-PO. It is filed as cell-based. On the procedure:
The cells are cultivated in the presence of the different peptides carrying, on the N-terminal side, biotin in decreasing concentrations (50 to 6 μg/ml) in the culture medium for variable times (1-18 hours).
At the end of the culture, the cells are washed three times with PBS (0.15 M NaCl buffered with 0.01 M potassium phosphate buffer pH 7.4) then fixed 15 minutes in ethanol at −20° C. The penetration of the peptide is evaluated after incubation for 30 minutes with streptavidin conjugated with peroxidase (abbreviated S-PO for streptavidin-peroxidase). Then, the S-PO is eliminated, and the cells are washed. […] With the other peptides, positive colorations, but of variable intensity, were noted.

≈ marks a conversion by molar mass, not a printed value. Read-outs that look alike come from different tables or passages of the source. Where no end group is shown, it is not given here. Some results are limits rather than exact numbers.

`CC1(C)S[C@@H]2[C@H](NC(=O)[C@H](N)c3ccccc3)C(=O)N2[C@H]1C(=O)O` [Ampicillin, reference compound]: the MBC in experiment [1] (Salmonella, TYPHI) was 5.5 µM (≈ 1.92 µg/mL); in experiment [2] it was 11 µM (≈ 3.84 µg/mL); in experiment [3] (Pseudomonas aeruginosa, ATCC27853), over 696 µM; in experiment [4] (Enterococcus faecalis, ATCC29212), 2.75 µM (≈ 0.961 µg/mL); in [5] (Escherichia coli, ATCC25922) it was 22 µM (≈ 7.69 µg/mL); in experiment [6] (Staphylococcus aureus, ATCC25923), under 0.68 µM.
With `CC(C)C[C@H](NC(=O)[C@H](CCCCN)NC(=O)[C@H](C)NC(=O)[C@H](CC(C)C)NC(=O)[C@H](CCCCN)NC(=O)[C@H](CCCCN)NC(=O)[C@H](C)NC(=O)[C@H](CC(C)C)NC(=O)[C@H](CCCCN)NC(=O)[C@H](C)NC(=O)[C@H](CC(C)C)NC(=O)[C@@H](N)CCCCN)C(=O)N[C@@H](C)C(=O)N[C@@H](CCCCN)C(=O)O` [SEQ ID NO: 24, reference compound], the MBC was 27.5 µM (≈ 41.9 µg/mL) in experiment [1] (S. typhi-Ty2); 110 µM (≈ 168 µg/mL) in [2]; 27.5 µM (≈ 41.9 µg/mL) in experiment [3]; over 110 µM in [4]; 55 µM (≈ 83.8 µg/mL) in experiment [5]; over 110 µM in experiment [6].
GLKKNGSCKRGPR [SEQ ID NO: 33]: the Kd in [7] came out at 260 nM; in [8] (listed as HBP8) it was 168 nM; in experiment [9] it was 225 nM; in experiment [10] it was 110 nM. In addition, the “Internalization of Peptide-peroxidase” value worked out at 3.6 pg/10^3 cells in the experiment on H1299 cells, 2.1 pg/10^3 cells in the experiment on HeLa and 7.6 pg/10^3 cells in the experiment with 3T3.
In the case of “KLAKLAKKLAKLAKGKRKKKGKLGKKRDP [SEQ ID NO: 44]”, the MBC in experiment [1] (Ty2 (WHO)) is 0.64 µM; in [2], 1.27 µM; in experiment [3], over 110 µM; in experiment [4], over 110 µM; in experiment [5], 1.7 µM; in [6], over 110 µM.
For “KLAKLAKKLAKLAKKHLKKHLKKHLK [SEQ ID NO: 45]”, the MBC in experiment [1] (Ty2 (WHO)) is 0.66 µM; in experiment [2] it was 1 µM; in [3], 0.5 µM; in [4], over 680 µM; in experiment [5] it was 1 µM; in [6], over 680 µM.
As for “VKRGLKLRHVRPRVTRMDV (listed as Homo sapiens) [SEQ ID NO: 10]”, the “Internalization of Peptide-peroxidase” value amounted to 10 pg/10^3 cells with H1299 cells, 4.7 pg/10^3 cells in the experiment on HeLa and 35 pg/10^3 cells with 3T3. Also, in the experiment on cells, the intracellular cytochemical coloration result is on record as “intense coloration”.
Consider YRSRKYSSWYYALKR [SEQ ID NO: 34], for which the Kd in [7] was determined as 47 nM; in experiment [8], 45 nM; in experiment [9], 47 nM; in [10], 25 nM. Moreover, the “percentage of quantity of peroxidase internalized compared to quantity deposited” value was “(0.01) %” with H1299 cells (0.01 μg/ml), “(1.4) %” in the experiment on H1299 cells (0.1 μg/ml), “(8.14) %” in the experiment with H1299 cells (0.5 μg/ml) and “(10.9) %” with H1299 cells (1 μg/ml). The “Internalization of Peptide-peroxidase” value in the experiment with H1299 cells was found to be 3.8 pg/10^3 cells; with HeLa it was 3.4 pg/10^3 cells; in the experiment with 3T3, 9 pg/10^3 cells. Also, the “quantity of peptide internalized” value was found to be 0.002 pg/10^3 cells with H1299 cells (peptide-peroxidase 0.01 μg/ml), 1.4 pg/10^3 cells with H1299 cells (peptide-peroxidase 0.1 μg/ml), 40.7 pg/10^3 cells in the experiment on H1299 cells (peptide-peroxidase 0.5 μg/ml) and 109 pg/10^3 cells with H1299 cells (peptide-peroxidase 1 μg/ml).
